Measured values published in patent US20260049077A1, “Neurotrophic Receptor Tyrosine Kinase (NTRK) Inhibitors and Methods Using Same” (Baylor College of Medicine, priority 2022, published 2026).
Several values for one entry are separate records, joined by “and”; a condition that tells them apart may be missing. Identical values can stand only once. Like-named read-outs stand apart in the source and are kept apart here.

Key:
NTRK3 = NTRK3 (Homo sapiens (Human), UniProt Q16288); assay: NTRK3 inhibition (IC50); conditions: read-out: NTRK3 IC50
[1] = Metabolic stability in mouse liver microsomes (MLM)
[2] = Endometriosis mouse model, liver and kidney toxicity (organ weight, ALT, AST); assay type: in vivo; design: ALT (Mean ± SD) / AST (Mean ± SD): unit not given here
Procedure: (§1) In one aspect, the present disclosure provides exemplary data relating to the administration of NTRK2 inhibitors in a mouse model of endometriosis (FIG. 14). In certain embodiments, the recipient mouse is administered the NTRK2 inhibitor and/or controls on day 14 after intraperitoneal injection of endometrium of the donor mouse. In certain embodiments, the recipient mouse is sacrificed and quantitatively assessed on day 28.

[3] = Pharmacokinetics of CDD-3031 in mice, oral gavage; assay type: in vivo, mouse; conditions: oral gavage 50 mg/kg, n = 3, mean ± SD
Procedure: CDD-2330 was dissolved in 10% DMSO+0.5% methyl cellulose at 5 mg/mL. CDD-2330 was orally delivered at 50 mg/kg to mice (n=4). Blood samples were collected at 0, 0.25, 0.5, 1, 2, 4, 6, 8, and 24 h. Samples were analyzed by LC-MS, and the concentration of CDD-2330 was quantified with a standard curve (range: 0-10 μM). CDD-3031 was administered by oral gavage at a dose of 50 mg/kg. Blood samples were collected at […], 0.167, 0.25, 0.5, 1, 2, 4, 6, 8, and 24 h.

NTRK2 = NTRK2 (Homo sapiens (Human), UniProt Q16620); assay: NTRK2 inhibition (IC50); assay type: biochemical
[4] = Metabolic stability in human liver microsomes (HLM)
[5] = Plasma ALT and AST in mice after a high dose (50 mg/kg); assay type: in vivo, mouse
192 kinases = assay: Promega K192 cell-based NanoBRET kinase occupancy assay (panel); conditions: 1 μM
Procedure: (§2) Similarly, the selectivity of CDD-3031 for NTRK kinases was evaluated in a kinase occupancy assay (Promega K192 cell-based NanoBRET assay) using 192 kinases (Table 4).

endometriotic lesions = assay: Endometriosis mouse model, lesion efficacy; assay type: in vivo; conditions: 10 mg/kg, excised lesions
Procedure: FIGS. 17A-17F depict the robust efficacy of the inhibitory compounds of the present disclosure as NTRK2 inhibitors for inhibition of endometriotic lesion growth in mice utilizing CDD-3132 as an example. FIG. 17A provides a schematic overview of the experiment performed. FIGS. 17B-17C provide photographs showing excised lesions with administration of a control (FIG. 17B) or CDD-3132 (10 mg/kg/day) (FIG. 17C).
as §1

CLK1 = CLK1 (Homo sapiens (Human), UniProt P49759); assay: Promega K192 cell-based NanoBRET kinase occupancy assay
Sequence of CLK1 (P49759 whole entry): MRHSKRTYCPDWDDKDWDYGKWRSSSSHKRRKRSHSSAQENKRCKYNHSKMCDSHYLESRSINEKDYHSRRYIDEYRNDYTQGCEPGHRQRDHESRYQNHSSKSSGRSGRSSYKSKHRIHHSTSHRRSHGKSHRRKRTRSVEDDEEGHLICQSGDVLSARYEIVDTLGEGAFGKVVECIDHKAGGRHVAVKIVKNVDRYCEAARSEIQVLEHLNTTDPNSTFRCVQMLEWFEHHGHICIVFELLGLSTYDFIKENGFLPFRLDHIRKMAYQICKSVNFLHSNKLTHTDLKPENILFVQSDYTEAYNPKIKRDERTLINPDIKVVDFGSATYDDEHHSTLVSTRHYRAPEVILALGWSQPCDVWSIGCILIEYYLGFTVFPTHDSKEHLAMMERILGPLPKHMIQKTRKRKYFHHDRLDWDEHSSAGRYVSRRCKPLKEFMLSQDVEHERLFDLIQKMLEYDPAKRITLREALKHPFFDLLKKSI
Procedure: as §2

AURKC = AURKC (Homo sapiens (Human), UniProt Q9UQB9); assay: as above
Sequence of AURKC (Q9UQB9 whole entry): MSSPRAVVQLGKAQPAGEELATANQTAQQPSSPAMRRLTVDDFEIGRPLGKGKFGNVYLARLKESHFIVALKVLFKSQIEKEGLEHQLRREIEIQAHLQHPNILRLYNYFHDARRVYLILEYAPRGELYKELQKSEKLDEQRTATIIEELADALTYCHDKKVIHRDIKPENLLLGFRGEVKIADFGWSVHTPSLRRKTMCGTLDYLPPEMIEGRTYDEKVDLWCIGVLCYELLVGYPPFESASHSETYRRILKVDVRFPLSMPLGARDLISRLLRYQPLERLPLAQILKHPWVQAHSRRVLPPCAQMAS
Procedure: as §2

MKNK2 = MKNK2 (Homo sapiens (Human), UniProt Q9HBH9); assay: as above
Sequence of MKNK2 (Q9HBH9 whole entry): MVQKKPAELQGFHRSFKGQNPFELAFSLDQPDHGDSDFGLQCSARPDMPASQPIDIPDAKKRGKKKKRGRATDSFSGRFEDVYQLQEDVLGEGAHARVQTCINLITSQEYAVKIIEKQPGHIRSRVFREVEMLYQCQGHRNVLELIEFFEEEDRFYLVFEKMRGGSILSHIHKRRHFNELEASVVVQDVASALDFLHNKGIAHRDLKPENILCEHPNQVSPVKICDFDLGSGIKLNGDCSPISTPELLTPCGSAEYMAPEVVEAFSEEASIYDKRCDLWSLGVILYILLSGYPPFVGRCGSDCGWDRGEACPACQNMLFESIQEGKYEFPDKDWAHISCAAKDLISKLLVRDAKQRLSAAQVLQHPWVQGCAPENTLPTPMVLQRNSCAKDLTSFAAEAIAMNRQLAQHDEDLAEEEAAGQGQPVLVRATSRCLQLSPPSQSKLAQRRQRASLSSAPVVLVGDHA
Procedure: as §2

SGK1 = SGK1 (Homo sapiens (Human), UniProt O00141); assay: as above
Sequence of SGK1 (O00141 whole entry): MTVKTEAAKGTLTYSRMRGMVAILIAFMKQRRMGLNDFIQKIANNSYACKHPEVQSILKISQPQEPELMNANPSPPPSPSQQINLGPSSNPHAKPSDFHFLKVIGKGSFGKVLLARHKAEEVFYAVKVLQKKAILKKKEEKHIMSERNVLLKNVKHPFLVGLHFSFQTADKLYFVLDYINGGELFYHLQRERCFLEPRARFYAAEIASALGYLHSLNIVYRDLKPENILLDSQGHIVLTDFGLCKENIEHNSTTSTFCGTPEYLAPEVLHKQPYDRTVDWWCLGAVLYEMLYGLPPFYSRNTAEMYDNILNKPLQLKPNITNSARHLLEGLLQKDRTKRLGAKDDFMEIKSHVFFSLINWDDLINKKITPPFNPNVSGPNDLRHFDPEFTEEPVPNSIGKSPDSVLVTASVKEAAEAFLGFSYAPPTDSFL
Procedure: as §2

NEK5 = NEK5 (Homo sapiens (Human), UniProt Q6P3R8); assay: as above
Sequence of NEK5 (Q6P3R8 whole entry): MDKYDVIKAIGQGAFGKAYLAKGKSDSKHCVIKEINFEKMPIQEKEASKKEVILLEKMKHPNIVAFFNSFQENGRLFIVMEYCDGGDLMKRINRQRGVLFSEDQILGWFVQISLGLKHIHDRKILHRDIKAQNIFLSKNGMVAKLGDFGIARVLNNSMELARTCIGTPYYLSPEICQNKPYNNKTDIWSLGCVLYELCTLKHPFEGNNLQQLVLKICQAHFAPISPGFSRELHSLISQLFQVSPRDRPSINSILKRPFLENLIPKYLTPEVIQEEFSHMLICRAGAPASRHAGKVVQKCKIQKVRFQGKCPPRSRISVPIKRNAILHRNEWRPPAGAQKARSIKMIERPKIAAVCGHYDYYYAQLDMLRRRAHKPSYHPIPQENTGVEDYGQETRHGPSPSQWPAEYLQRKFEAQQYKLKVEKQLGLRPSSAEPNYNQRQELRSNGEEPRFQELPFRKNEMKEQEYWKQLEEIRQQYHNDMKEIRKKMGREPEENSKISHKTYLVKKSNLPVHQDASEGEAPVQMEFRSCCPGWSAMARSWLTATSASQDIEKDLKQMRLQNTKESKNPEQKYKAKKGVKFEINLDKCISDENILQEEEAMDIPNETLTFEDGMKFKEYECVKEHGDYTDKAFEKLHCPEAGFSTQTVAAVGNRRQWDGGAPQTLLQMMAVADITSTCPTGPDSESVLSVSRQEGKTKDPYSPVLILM
Procedure: as §2

JAK2 (V617F) = JAK2 (V617F) (Homo sapiens (Human), UniProt O60674, V617F); assay: as above
Procedure: as §2

MUSK = MUSK (Homo sapiens (Human), UniProt O15146); assay: as above
Procedure: as §2

PKMYT1 = PKMYT1 (Homo sapiens (Human), UniProt Q99640); assay: as above
Sequence of PKMYT1 (Q99640 whole entry): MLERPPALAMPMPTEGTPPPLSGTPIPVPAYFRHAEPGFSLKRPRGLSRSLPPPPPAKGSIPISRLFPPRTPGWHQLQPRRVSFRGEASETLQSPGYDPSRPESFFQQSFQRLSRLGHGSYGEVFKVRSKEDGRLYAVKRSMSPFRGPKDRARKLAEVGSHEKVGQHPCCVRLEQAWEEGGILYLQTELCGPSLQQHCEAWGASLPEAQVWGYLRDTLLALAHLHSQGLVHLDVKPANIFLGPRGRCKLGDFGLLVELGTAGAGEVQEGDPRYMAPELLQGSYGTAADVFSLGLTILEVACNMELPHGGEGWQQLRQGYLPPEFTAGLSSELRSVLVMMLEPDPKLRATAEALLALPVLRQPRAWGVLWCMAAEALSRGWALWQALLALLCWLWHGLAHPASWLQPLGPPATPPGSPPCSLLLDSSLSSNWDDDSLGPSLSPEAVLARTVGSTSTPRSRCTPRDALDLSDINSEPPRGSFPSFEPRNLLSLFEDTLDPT
Procedure: as §2

TEK = TEK (Homo sapiens (Human), UniProt Q02763); assay: as above
Sequence of TEK (Q02763 23-1124): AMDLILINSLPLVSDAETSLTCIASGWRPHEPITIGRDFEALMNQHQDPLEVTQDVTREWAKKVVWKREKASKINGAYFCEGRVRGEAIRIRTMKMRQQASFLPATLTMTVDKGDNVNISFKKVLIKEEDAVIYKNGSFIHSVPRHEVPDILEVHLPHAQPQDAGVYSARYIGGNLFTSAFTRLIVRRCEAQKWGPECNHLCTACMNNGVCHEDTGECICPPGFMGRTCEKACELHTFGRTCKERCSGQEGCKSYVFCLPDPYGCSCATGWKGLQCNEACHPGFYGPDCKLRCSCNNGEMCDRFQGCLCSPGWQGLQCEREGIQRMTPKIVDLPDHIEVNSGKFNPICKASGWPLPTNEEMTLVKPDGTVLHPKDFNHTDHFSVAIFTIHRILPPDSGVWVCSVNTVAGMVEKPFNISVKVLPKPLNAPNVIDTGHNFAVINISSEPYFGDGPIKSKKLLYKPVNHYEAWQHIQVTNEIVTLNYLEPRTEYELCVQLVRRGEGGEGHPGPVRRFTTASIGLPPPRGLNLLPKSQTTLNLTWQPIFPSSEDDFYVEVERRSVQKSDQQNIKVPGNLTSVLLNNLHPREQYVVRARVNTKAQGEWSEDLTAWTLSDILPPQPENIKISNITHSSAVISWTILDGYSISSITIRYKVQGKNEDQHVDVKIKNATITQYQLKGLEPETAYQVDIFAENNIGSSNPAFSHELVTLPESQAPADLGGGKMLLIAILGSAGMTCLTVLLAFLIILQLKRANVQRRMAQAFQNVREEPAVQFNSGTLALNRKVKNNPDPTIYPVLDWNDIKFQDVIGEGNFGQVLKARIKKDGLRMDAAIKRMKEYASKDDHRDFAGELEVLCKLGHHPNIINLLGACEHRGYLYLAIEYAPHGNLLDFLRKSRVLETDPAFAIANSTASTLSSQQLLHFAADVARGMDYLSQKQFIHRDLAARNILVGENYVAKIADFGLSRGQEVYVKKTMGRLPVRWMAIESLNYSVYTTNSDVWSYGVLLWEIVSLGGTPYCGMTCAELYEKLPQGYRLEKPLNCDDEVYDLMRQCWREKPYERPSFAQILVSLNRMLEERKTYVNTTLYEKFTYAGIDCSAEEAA
Procedure: as §2

MAP3K12 = MAP3K12 (Homo sapiens (Human), UniProt Q12852); assay: as above
Sequence of MAP3K12 (Q12852 whole entry): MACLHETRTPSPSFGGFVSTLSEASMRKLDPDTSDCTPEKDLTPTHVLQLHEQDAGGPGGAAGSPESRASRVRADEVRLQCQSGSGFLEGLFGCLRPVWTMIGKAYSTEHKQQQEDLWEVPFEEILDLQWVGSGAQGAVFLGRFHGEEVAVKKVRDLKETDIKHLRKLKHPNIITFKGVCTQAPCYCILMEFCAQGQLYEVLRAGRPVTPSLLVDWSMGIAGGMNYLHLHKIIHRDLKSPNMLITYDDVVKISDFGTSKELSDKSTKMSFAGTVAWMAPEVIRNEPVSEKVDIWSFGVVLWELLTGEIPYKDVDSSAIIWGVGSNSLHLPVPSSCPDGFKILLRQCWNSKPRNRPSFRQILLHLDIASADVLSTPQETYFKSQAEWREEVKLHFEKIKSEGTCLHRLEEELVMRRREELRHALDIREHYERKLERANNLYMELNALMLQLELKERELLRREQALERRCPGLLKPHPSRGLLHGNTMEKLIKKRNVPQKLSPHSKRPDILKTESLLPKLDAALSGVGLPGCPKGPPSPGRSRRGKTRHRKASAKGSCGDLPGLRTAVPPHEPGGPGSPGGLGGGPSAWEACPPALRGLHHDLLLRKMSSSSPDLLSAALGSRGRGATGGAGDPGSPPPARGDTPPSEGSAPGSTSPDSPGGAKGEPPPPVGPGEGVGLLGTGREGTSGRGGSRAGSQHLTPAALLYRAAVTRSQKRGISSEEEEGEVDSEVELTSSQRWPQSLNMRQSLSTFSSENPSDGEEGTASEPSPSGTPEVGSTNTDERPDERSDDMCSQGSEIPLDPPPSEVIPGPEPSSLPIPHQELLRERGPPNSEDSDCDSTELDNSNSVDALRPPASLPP
Procedure: as §2

NTRK1 = NTRK1 (Homo sapiens (Human), UniProt P04629); assay: NTRK1 inhibition (IC50); conditions: read-out: NTRK1 IC50
[6] = i.p. dose of 10 mg/kg/day for 14 days
[7] = plasma, 24 h after 50 mg/kg CDD-3031 by oral gavage, individual mice

Compound: CN(Cc1ccn2ncc(C(N)=O)c2c1)C(=O)Nc1ccc(OC(F)(F)F)cc1 [CDD-3031, 5-((1-methyl-3-(4-(trifluoromethoxy)phenyl)ureido)methyl)pyrazolo[1,5-a]pyridine-3-carboxamide]
- IC50 (NTRK3): 25.3 nM
- half-life [1]: 13.1 h
- microsomal CLint [1]: 1.8 µL/min/mg
- effect on liver and/or kidney weight and/or serum elevation of ALT and AST ([2]; 10 mg/kg, mice with endometriotic lesions): little to no effect
- ALT (Mean ± SD) [2, 6]: 16.6 ± 2.6
- AST (Mean ± SD) [2, 6]: 46.9 ± 23.4
- impact on liver and kidney weights ([2]; mice treated for 14 days): no significant impact
- AUC(0-inf) ([3]; mouse, blood): 478 ± 87.8 µM·h
- AUC(0-t) ([3]; mouse, blood): 418 ± 62.1 µM·h
- Cmax ([3]; mouse, blood): 37.1 ± 4.88 µM
- Tmax ([3]; mouse, blood): 1.17 ± 0.76 h
- half-life ([3]; mouse, blood): 8.03 ± 1.25 h
- MRT last ([3]; mouse, blood, read-out: MRT0-t): 7.23 ± 0.38 h
- MRT inf ([3]; mouse, blood, read-out: MRT0-∞): 10.7 ± 1.52 h
- CL/F [3]: 0.11 ± 0.02 mg/(hr*μmol/L)/kg
- Vd/F [3]: 1.22 ± 0.05 mg/(μmol/L)/kg
- IC50 (NTRK2): 11.9 nM
- half-life [4]: > 16.7 h
- potential liver and other tissue toxicity ([5]; high dose, 50 mg/kg): minimal effects
- ALT [5, 7]: 35.89 IU/L and 24.49 IU/L and 52.86 IU/L and 48.18 IU/L
- AST [5, 7]: 86.81 IU/L and 64.53 IU/L and 68.33 IU/L and 72.84 IU/L
- selectivity in 192-kinase occupancy panel (192 kinases): greater selectivity for NTRK2 and NTRK1
- endometriotic lesion growth (endometriotic lesions): inhibiting endometriotic lesion growth
- receptor occupancy at 1 µM (CLK1; average, read-out: CLK1 kinase occupancy, Average (%)): 4.92%
- receptor occupancy at 1 µM (CLK1; replicate 1, read-out: CLK1 kinase occupancy, Replicate 1 (%)): 3.65%
- receptor occupancy at 1 µM (CLK1; replicate 2, read-out: CLK1 kinase occupancy, Replicate 2 (%)): 6.2%
- receptor occupancy at 1 µM (AURKC; average, read-out: AURKC kinase occupancy, Average (%)): 4.09%
- receptor occupancy at 1 µM (AURKC; replicate 1, read-out: AURKC kinase occupancy, Replicate 1 (%)): -7.48%
- receptor occupancy at 1 µM (AURKC; replicate 2, read-out: AURKC kinase occupancy, Replicate 2 (%)): 15.7%
- receptor occupancy at 1 µM (MKNK2; average, read-out: MKNK2 kinase occupancy, Average (%)): 4.61%
- receptor occupancy at 1 µM (MKNK2; replicate 1, read-out: MKNK2 kinase occupancy, Replicate 1 (%)): 7.96%
- receptor occupancy at 1 µM (MKNK2; replicate 2, read-out: MKNK2 kinase occupancy, Replicate 2 (%)): 1.26%
- receptor occupancy at 1 µM (SGK1; average, read-out: SGK1 kinase occupancy, Average (%)): 4.31%
- receptor occupancy at 1 µM (SGK1; replicate 1, read-out: SGK1 kinase occupancy, Replicate 1 (%)): 1.93%
- receptor occupancy at 1 µM (SGK1; replicate 2, read-out: SGK1 kinase occupancy, Replicate 2 (%)): 6.69%
- receptor occupancy at 1 µM (NEK5; average, read-out: NEK5 kinase occupancy, Average (%)): 5.02%
- receptor occupancy at 1 µM (NEK5; replicate 1, read-out: NEK5 kinase occupancy, Replicate 1 (%)): -0.81%
- receptor occupancy at 1 µM (NEK5; replicate 2, read-out: NEK5 kinase occupancy, Replicate 2 (%)): 10.8%
- receptor occupancy at 1 µM (JAK2 (V617F); average, read-out: JAK2 (V617F) kinase occupancy, Average (%)): 9.92%
- receptor occupancy at 1 µM (JAK2 (V617F); replicate 1, read-out: JAK2 (V617F) kinase occupancy, Replicate 1 (%)): 31.4%
- receptor occupancy at 1 µM (JAK2 (V617F); replicate 2, read-out: JAK2 (V617F) kinase occupancy, Replicate 2 (%)): -11.6%
- receptor occupancy at 1 µM (MUSK; average, read-out: MUSK kinase occupancy, Average (%)): 19.8%
- receptor occupancy at 1 µM (MUSK; replicate 1, read-out: MUSK kinase occupancy, Replicate 1 (%)): 17.5%
- receptor occupancy at 1 µM (MUSK; replicate 2, read-out: MUSK kinase occupancy, Replicate 2 (%)): 22.2%
- receptor occupancy at 1 µM (PKMYT1; average, read-out: PKMYT1 kinase occupancy, Average (%)): 4.17%
- receptor occupancy at 1 µM (PKMYT1; replicate 1, read-out: PKMYT1 kinase occupancy, Replicate 1 (%)): 5.47%
- receptor occupancy at 1 µM (PKMYT1; replicate 2, read-out: PKMYT1 kinase occupancy, Replicate 2 (%)): 2.88%
- receptor occupancy at 1 µM (TEK; average, read-out: TEK kinase occupancy, Average (%)): 10.2%
- receptor occupancy at 1 µM (TEK; replicate 1, read-out: TEK kinase occupancy, Replicate 1 (%)): 13.1%
- receptor occupancy at 1 µM (TEK; replicate 2, read-out: TEK kinase occupancy, Replicate 2 (%)): 7.34%
- receptor occupancy at 1 µM (MAP3K12; average, read-out: MAP3K12 kinase occupancy, Average (%)): 7.58%
- receptor occupancy at 1 µM (MAP3K12; replicate 1, read-out: MAP3K12 kinase occupancy, Replicate 1 (%)): 21.2%
- receptor occupancy at 1 µM (MAP3K12; replicate 2, read-out: MAP3K12 kinase occupancy, Replicate 2 (%)): -6.05%
- IC50 (NTRK1): 153 nM
